In patent US11434242B2, “Dopamine-b-hydroxylase inhibitors” (BIAL-PORTELA & Cª, S.A., priority 2017, dated 2022):
Where a name gives a salt, the structure may show the parent alone. Marks after values point to notes of the source that are not given here.

How the values were obtained:
DβH = target: T1, DβH (Homo sapiens, UniProt P09172); assay: DβH inhibition assay in SK-N-SH cellular homogenates (tyramine to octopamine); type: biochemical; settings: SK-N-SH cell homogenate; for SKNSH (1 μM), activity in % of control: inhibitor 1 μM
T1 construct: cellular homogenate (75 μg total protein); host or cells: SK-N-SH cells (homogenate)
T1 sequence (P09172 1-617): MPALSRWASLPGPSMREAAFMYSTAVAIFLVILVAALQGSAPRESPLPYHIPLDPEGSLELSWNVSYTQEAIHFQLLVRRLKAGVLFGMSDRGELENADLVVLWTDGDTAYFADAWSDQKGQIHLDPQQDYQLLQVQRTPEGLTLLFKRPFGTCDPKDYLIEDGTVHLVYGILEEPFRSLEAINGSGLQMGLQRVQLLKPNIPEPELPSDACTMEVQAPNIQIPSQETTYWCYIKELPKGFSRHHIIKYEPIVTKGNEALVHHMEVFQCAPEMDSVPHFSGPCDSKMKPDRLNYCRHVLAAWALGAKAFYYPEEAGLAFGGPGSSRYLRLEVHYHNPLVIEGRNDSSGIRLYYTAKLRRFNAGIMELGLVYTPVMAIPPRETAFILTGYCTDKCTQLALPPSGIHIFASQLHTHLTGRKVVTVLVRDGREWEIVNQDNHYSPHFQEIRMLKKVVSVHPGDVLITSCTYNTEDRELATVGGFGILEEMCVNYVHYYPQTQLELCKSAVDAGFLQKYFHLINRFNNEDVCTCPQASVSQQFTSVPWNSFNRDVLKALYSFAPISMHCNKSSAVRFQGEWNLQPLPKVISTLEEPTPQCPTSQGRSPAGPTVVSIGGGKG

[1] = target: T2, Dopamine beta hydroxylase (Homo sapiens, UniProt P09172); assay: Dopamine beta hydroxylase activity in human plasma; type: biochemical
T2 construct: 125 μl of plasma; tissue Instituto Português do Sangue Transplantação; host or cells: human plasma from healthy donors
T2 sequence (P09172 40-617 limits assumed): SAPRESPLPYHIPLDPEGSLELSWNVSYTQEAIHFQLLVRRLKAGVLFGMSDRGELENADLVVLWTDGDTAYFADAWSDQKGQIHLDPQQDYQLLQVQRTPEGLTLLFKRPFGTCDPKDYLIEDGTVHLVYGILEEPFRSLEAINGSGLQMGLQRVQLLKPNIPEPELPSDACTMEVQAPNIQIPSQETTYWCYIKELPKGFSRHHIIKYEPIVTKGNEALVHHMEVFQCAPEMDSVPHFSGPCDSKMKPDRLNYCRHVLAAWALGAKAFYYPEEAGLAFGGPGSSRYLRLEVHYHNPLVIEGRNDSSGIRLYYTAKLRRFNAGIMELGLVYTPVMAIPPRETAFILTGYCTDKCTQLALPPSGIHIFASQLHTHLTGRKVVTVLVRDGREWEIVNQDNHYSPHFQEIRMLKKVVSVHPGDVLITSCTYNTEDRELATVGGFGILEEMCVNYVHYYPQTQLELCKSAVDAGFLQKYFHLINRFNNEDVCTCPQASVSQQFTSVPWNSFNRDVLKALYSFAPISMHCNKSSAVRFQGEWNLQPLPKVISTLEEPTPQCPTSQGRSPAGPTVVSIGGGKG
Procedure, shortened: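 Octopamine production from tyramine over 45 min at 37° C, measured photometrically at 330 nm after SCX extraction and periodate oxidation against an octopamine standard curve, indicates plasma DβH activity. Compounds tested at final 10, 100 and 1000 nM in human plasma, pH 5.0 cofactor buffer, 10 min preincubation; results as % of control.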

With `NCCc1[nH]c(=S)n2c1[C@@H]1C[C@]1(c1cc(F)cc(F)c1)C2` [Example 35, (5aS,6aR)-1-(2-aminoethyl)-5a-(3,5-difluorophenyl)-5,5a,6,6a-tetrahydrocyclopropa[3,4]pyrrolo[1,2-c]imidazole-3(2H)-thione Hydrochloride] the “SKNSH (1 μM), activity in % of control” value (DβH) was 45.9 % of control.

In the case of `Fc1ccc(F)c([C@]23C[C@H]2c2c(CCc4ccccc4)[nH]c(=S)n2C3)c1` [Example 48, (5aS,6aR)-5a-(2,5-difluorophenyl)-1-phenethyl-5,5a,6,6a-tetrahydrocyclopropa[3,4]pyrrolo[1,2-c]imidazole-3(2H)-thione], the “SKNSH (1 μM), activity in % of control” value (DβH) is reported as 48.4 % of control.

With `O=C(Cc1[nH]c(=S)n2c1C[C@@H](c1cc(F)cc(F)c1)C2)N1CCOCC1` [Example 9, (S)-2-(6-(3,5-difluorophenyl)-3-thioxo-3,5,6,7-tetrahydro-2H-pyrrolo[1,2-c]imidazol-1-yl)-1-morpholinoethanone] the “SKNSH (1 μM), activity in % of control” value (DβH) was 54.9 % of control.

`O=C(O)Cc1[nH]c(=S)n2c1C[C@@H](c1cc(F)cc(F)c1)C2` [Example 11, (S)-2-(6-(3,5-difluorophenyl)-3-thioxo-3,5,6,7-tetrahydro-2H-pyrrolo[1,2-c]imidazol-1-yl)acetic Acid] was tested, and the “SKNSH (1 μM), activity in % of control” value (DβH) was 28.5 % of control.

For `CCCCN(C)CCc1[nH]c(=S)n2c1[C@@H]1C[C@]1(c1cc(F)ccc1F)C2.Cl` [Example 39, (5aS,6aR)-1-(2-(butyl(methyl)amino)ethyl)-5a-(2,5-difluorophenyl)-5,5a,6,6a-tetrahydrocyclopropa[3,4]pyrrolo[1,2-c]imidazole-3(2H)-thione Hydrochloride], the “SKNSH (1 μM), activity in % of control” value (DβH) was 29.8 % of control.

`OCCc1[nH]c(=S)n2c1[C@@H]1C[C@]1(c1cc(F)cc(F)c1)C2` [Example 8, (5aS,6aR)-5a-(3,5-difluorophenyl)-1-(2-hydroxyethyl)-5,5a,6,6a-tetrahydrocyclopropa[3,4]pyrrolo[1,2-c]imidazole-3(2H)-thione] was tested, and the “SKNSH (1 μM), activity in % of control” value (DβH) was 15.3 % of control.

`CCOC(=O)Cc1[nH]c(=S)n2c1C[C@@H](c1cc(F)ccc1F)C2` [Example 2, (S)-ethyl 2-(6-(2,5-difluorophenyl)-3-thioxo-3,5,6,7-tetrahydro-2H-pyrrolo[1,2-c]imidazol-1-yl)acetate] was tested, and the “SKNSH (1 μM), activity in % of control” value (DβH) was 49.3 % of control.

For `O=Cc1[nH]c(=S)n2c1C[C@@H](c1cc(F)cc(F)c1)C2` [Example 45, (S)-6-(3,5-difluorophenyl)-3-thioxo-3,5,6,7-tetrahydro-2H-pyrrolo[1,2-c]imidazole-1-carbaldehyde], the “SKNSH (1 μM), activity in % of control” value (DβH) was 46.8 % of control.

`Fc1ccc(F)c([C@]23C[C@H]2c2c(Cc4nnn[nH]4)[nH]c(=S)n2C3)c1` [Example 41, (5aS,6aR)-1-((1H-tetrazol-5-yl)methyl)-5a-(2,5-difluorophenyl)-5,5a,6,6a-tetrahydrocyclopropa[3,4]pyrrolo[1,2-c]imidazole-3(2H)-thione] was tested, and the “SKNSH (1 μM), activity in % of control” value (DβH) was 60.7 % of control.

In the case of `OCCc1[nH]c(=S)n2c1[C@@H]1C[C@]1(c1cc(F)ccc1F)C2` [Example 42, (5aS,6aR)-5a-(2,5-difluorophenyl)-1-(2-hydroxyethyl)-5,5a,6,6a-tetrahydrocyclopropa[3,4]pyrrolo[1,2-c]imidazole-3(2H)-thione], the “SKNSH (0.1 μM), activity in % of control” value (DβH; inhibitor 0.1 μM) is reported as 51.5 % of control and the “SKNSH (1 μM), activity in % of control” value (DβH) is reported as 8.0 % of control.

With `Fc1ccc(F)c([C@]23C[C@H]2c2c(CCCc4ccccc4)[nH]c(=S)n2C3)c1` [Example 49, (5aS,6aR)-5a-(2,5-difluorophenyl)-1-(3-phenylpropyl)-5,5a,6,6a-tetrahydrocyclopropa[3,4]pyrrolo[1,2-c]imidazole-3(2H)-thione] the “SKNSH (1 μM), activity in % of control” value (DβH) was 33.7 % of control.

With `N#CNC(=O)Cc1[nH]c(=S)n2c1C[C@@H](c1c(F)c(F)cc(F)c1F)C2` [Example 19, (S)—N-cyano-2-(6-(2,3,5,6-tetrafluorophenyl)-3-thioxo-3,5,6,7-tetrahydro-2H-pyrrolo[1,2-c]imidazol-1-yl)acetamide] the “SKNSH (1 μM), activity in % of control” value (DβH) was 16.4 % of control.

With `O=C(Cc1[nH]c(=S)n2c1[C@@H]1C[C@]1(c1c(F)ccc(Cl)c1F)C2)NCC(F)(F)F` [Example 150, 2-((5aS,6aR)-5a-(3-chloro-2,6-difluorophenyl)-3-thioxo-2,3,5,5a,6,6a-hexahydrocyclopropa[3,4]pyrrolo[1,2-c]imidazol-1-yl)-N-(2,2,2-trifluoroethyl)acetamide] the “Plasma (0.01 μM), activity in % of control” value ([1]; inhibitor 0.01 μM) was 64.8 % of control and the “Plasma (0.1 μM), activity in % of control” value ([1]; inhibitor 0.1 μM) was 17.1 % of control.

In the case of `CC(C)(C)OC(=O)N1CCC[C@@H]1CNC(=O)Cc1[nH]c(=S)n2c1C[C@@H](c1c(F)ccc(Br)c1F)C2` [Example 122, tert-butyl (R)-2-((2-((S)-6-(3-bromo-2,6-difluorophenyl)-3-thioxo-2,5,6,7-tetrahydro-3H-pyrrolo[1,2-c]imidazol-1-yl)acetamido)methyl)pyrrolidine-1-carboxylate], the “Plasma (0.01 μM), activity in % of control” value ([1]; inhibitor 0.01 μM) is reported as 70.8 % of control and the “Plasma (0.1 μM), activity in % of control” value ([1]; inhibitor 0.1 μM) is reported as 13.0 % of control.

`[2H]C([2H])([2H])n1c(CC(=O)N[C@@H]2CCOC2)c2n(c1=S)C[C@@]1(c3cc(Br)ccc3F)C[C@@H]21` [Example 465, 2-((5aS,6aR)-5a-(5-bromo-2-fluorophenyl)-2-(methyl-d)-3-thioxo-2,3,5,5a,6,6a-hexahydrocyclopropa[3,4]pyrrolo[1,2-c]imidazol-1-yl)-N—((R)-tetrahydrofuran-3-yl)acetamide] was tested, and the “Plasma (0.01 μM), activity in % of control” value ([1]; inhibitor 0.01 μM) was 62.3 % of control and the “Plasma (0.1 μM), activity in % of control” value ([1]; inhibitor 0.1 μM) was 9.0 % of control.

With `NC(=O)Cc1[nH]c(=S)n2c1C[C@@H](c1c(F)ccc(Cl)c1F)C2` [Example 108, (S)-2-(6-(3-chloro-2,6-difluorophenyl)-3-thioxo-2,5,6,7-tetrahydro-3H-pyrrolo[1,2-c]imidazol-1-yl)acetamide] the “Plasma (0.1 μM), activity in % of control” value ([1]; inhibitor 0.1 μM) was 46.9 % of control and the “Plasma (1 μM), activity in % of control” value ([1]; inhibitor 1 μM) was 5.3 % of control.

With `O=C(Cc1[nH]c(=S)n2c1C[C@@H](c1c(F)ccc(Cl)c1F)C2)N1CCOCC1` [Example 363, (S)-2-(6-(3-chloro-2,6-difluorophenyl)-3-thioxo-2,5,6,7-tetrahydro-3H-pyrrolo[1,2-c]imidazol-1-yl)-1-morpholinoethan-1-one] the “Plasma (0.01 μM), activity in % of control” value ([1]; inhibitor 0.01 μM) was 89.5 % of control and the “Plasma (0.1 μM), activity in % of control” value ([1]; inhibitor 0.1 μM) was 20.8 % of control.

For `O=C(Cc1[nH]c(=S)n2c1C[C@H](c1c(F)c(F)cc(F)c1F)C2)NC1CCCCC1O` (stereo partly drawn) [Example 29, N-(2-hydroxycyclohexyl)-2-((R)-6-(2,3,5,6-tetrafluorophenyl)-3-thioxo-2,5,6,7-tetrahydro-3H-pyrrolo[1,2-c]imidazol-1-yl)acetamide], the “Plasma (0.01 μM), activity in % of control” value ([1]; inhibitor 0.01 μM) was 72.5 % of control and the “Plasma (0.1 μM), activity in % of control” value ([1]; inhibitor 0.1 μM) was 29.1 % of control.

In the case of `Cn1c(CCN[C@@H]2CCOC2)c2n(c1=S)C[C@@]1(c3cc(Br)ccc3F)C[C@@H]21` [Example 359, (5aS,6aR)-5a-(5-bromo-2-fluorophenyl)-2-methyl-1-(2-(((R)-tetrahydrofuran-3-yl)amino)ethyl)-5,5a,6,6a-tetrahydrocyclopropa[3,4]pyrrolo[1,2-c]imidazole-3(2H)-thione], the “Plasma (0.01 μM), activity in % of control” value ([1]; inhibitor 0.01 μM) is reported as 101.2 % of control and the “Plasma (0.1 μM), activity in % of control” value ([1]; inhibitor 0.1 μM) is reported as 53.3 % of control.

In the case of `O=C(Cc1[nH]c(=S)n2c1C[C@H](c1c(F)c(F)cc(F)c1F)C2)N[C@@H]1CCOC1` [Example 360, 2-((R)-6-(2,3,5,6-tetrafluorophenyl)-3-thioxo-2,5,6,7-tetrahydro-3H-pyrrolo[1,2-c]imidazol-1-yl)-N—((R)-tetrahydrofuran-3-yl)acetamide], the “Plasma (0.01 μM), activity in % of control” value ([1]; inhibitor 0.01 μM) is reported as 31.8 % of control, the “Plasma (0.01 μM), activity in % of control, re-test (asterisked)” value ([1]; inhibitor 0.01 μM, re-tested under the same experimental conditions, asterisked data believed to be correct) is reported as 90.1* % of control and the “Plasma (0.1 μM), activity in % of control” value ([1]; inhibitor 0.1 μM) is reported as 1.4 % of control. For the same compound, the “Plasma (0.1 μM), activity in % of control, re-test (asterisked)” value ([1]; inhibitor 0.1 μM, re-tested under the same experimental conditions, asterisked data believed to be correct) was 22.5* % of control.
